Here are results for four compounds from ChEMBL document CHEMBL6083177, “Targeting bromodomian-containing protein 8 (BRD8): An advanced tool to interrogate BRD8” (Eur J Med Chem, 2024).

One may read the IC50 as the concentration at which inhibition is half-maximal. Low values mean greater potency, high ones weaker potency.

Test [1] has as its target T1, Bromodomain-containing protein 9 (Homo sapiens, UniProt Q9H8M2).
T1 sequence (Q9H8M2 whole entry): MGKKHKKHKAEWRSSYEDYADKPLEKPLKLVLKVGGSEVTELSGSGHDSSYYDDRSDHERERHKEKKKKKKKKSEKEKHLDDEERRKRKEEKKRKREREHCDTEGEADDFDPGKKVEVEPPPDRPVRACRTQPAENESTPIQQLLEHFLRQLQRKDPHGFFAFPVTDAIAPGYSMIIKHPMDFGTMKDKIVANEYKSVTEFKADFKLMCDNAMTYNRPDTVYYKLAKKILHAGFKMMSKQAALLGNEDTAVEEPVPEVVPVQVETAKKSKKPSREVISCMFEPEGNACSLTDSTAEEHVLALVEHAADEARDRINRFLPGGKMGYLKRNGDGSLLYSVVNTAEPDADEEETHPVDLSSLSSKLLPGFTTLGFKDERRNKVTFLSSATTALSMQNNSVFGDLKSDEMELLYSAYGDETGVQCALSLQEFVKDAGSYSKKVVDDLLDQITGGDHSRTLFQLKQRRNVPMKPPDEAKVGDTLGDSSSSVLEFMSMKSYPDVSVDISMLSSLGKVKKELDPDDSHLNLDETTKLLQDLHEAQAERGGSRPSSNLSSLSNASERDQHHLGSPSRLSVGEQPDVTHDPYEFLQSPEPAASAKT
Kind of test: Inhibition of BRD9 (unknown origin) by TR-FRET assay. In general terms: TR-FRET usually uses a lanthanide donor and a delayed reading to cut background.

Test [2] can be described thus: Inhibition of BRD4/BRD1 (unknown origin).
Test [3] can be described thus: Inhibition of BRD8/BRD1 (unknown origin).
Test [4] deals with T2, Bromodomain-containing protein 1 (Homo sapiens, UniProt O95696).
T2 sequence (O95696 whole entry): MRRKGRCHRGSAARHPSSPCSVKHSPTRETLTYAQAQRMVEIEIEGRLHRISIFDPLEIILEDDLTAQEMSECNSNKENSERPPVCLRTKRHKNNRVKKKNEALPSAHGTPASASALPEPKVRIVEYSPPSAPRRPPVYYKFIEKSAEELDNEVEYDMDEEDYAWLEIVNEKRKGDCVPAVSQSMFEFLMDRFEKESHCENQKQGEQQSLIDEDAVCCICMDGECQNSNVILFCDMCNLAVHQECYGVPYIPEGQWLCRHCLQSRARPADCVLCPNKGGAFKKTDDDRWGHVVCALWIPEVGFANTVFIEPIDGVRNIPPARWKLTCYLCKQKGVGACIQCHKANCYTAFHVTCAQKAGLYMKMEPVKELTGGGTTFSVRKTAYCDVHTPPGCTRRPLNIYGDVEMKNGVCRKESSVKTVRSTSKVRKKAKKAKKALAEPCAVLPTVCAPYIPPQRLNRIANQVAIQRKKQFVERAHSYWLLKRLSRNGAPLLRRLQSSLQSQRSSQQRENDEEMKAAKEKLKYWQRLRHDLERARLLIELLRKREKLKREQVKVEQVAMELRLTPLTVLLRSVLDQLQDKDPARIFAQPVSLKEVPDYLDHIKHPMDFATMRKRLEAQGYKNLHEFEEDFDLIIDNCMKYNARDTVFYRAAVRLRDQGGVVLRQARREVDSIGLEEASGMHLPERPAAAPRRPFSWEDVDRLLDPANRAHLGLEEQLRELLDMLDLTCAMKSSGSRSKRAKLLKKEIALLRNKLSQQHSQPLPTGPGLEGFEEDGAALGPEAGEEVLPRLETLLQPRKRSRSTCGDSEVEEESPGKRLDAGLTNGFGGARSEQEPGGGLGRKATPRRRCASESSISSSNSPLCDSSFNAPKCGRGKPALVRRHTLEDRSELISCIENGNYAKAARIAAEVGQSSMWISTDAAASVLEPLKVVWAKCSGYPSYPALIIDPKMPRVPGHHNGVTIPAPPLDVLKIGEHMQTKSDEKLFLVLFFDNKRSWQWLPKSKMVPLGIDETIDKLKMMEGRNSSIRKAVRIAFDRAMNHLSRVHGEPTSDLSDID
Kind of test: Inhibition of BRD1 (unknown origin).

Test [5] can be described thus: Inhibition of BRD8/BRD1 (unknown origin) by Alpha Screen assay. (In general: In Alpha technology, singlet oxygen from a donor bead excites a nearby acceptor bead.)
Test [6] in a line: Inhibition BRD9/BRD1 (unknown origin) by Alpha Screen assay.

Molecules are shown by their SMILES.

Turning to `COc1cc(-c2cn(C)c(=O)c3cc(F)ccc23)c(OC)cc1CN(C)C`, the IC50 was 0.02 µM in test [1], more than 10 µM in test [2] and 0.16 µM in test [3].
For `COc1cc(CN(C)C)cc(OC)c1-c1cn(C)c(=O)c2cnccc12` the same measures were more than 10 µM, more than 10 µM and 0.08 µM.
As to `COc1cc(-c2cn(C)c(=O)c3cnccc23)c(OC)cc1CN1CC(N)C1`, the 50% inhibitory concentration (IC50) was less than 0.01 µM in test [1], 7.4 µM in test [2] and 0.49 µM in test [4].
For the compound `COc1cc(CN(C)C)cc(OC)c1-c1cn(C)c(=O)c2cc(F)ccc12`, the IC50 was 0.012 µM in test [5] and 10 µM in test [6].
